Measurements reported in patent US8273404B2, “Extraction of solvents from drug containing polymer reservoirs” (Cordis Corporation, priority 2008, dated 2012).

Legend:
[1] = assay type: physicochemical; details: 0.02 weight percent BHT per total basecoat solids
Source text: Referring to FIG. 113, there is illustrated in graphical format, the results of the same drug screening as described above with the solution applied to a cobalt-chromium, 18 mm stent. In this test, two sets of solution samples were utilized, one with sirolimus and polymer solution containing the antioxidant and one with sirolimus and polymer solution containing no antioxidant. The antioxidant utilized was 0.02 weight percent BHT per total basecoat solids. The test was utilized to determine the percent drug content change over a time period of 0 to 12 weeks under two conditions; namely, 40° C. with 75 percent relative humidity, and ambient conditions (25° C.).

[2] = test system: coronary restenosis after angioplasty; assay: MultiVitamins and Probucol (MVP) randomized clinical trial, angiographic and clinical endpoints; assay type: in vivo, human
Source text: It was not possible to determine with angiography alone whether probucol acted via inhibition of tissue hyperplasia or improvement in vascular remodeling. […] In addition, the invention enables the skilled practitioner to use probucol in conjunction with other percutaneous coronary interventions such as stenting if it is deemed appropriate.
(§1) Beginning thirty days prior to scheduled angioplasty, patients were randomly assigned to receive either probucol alone, multivitamins alone, the combination of probucol and multivitamins, or placebo. Probucol 500 mg or matched placebo was administered twice daily. The multivitamin complex, consisting of vitamin E 700 IU, vitamin C 500 mg and beta-carotene 30,000 IU, or matched placebo was also administered in one tablet twice daily. All patients received an extra dose of probucol 1000 mg and/or vitamin E 2000 IU and/or matched placebos twelve hours before angioplasty, according to randomization assignment. […] All patients received aspirin 325 mg daily started at least thirty days before procedure and continued for the study period. Balloon angioplasty was performed according to standard techniques. Intracoronary nitroglycerin (0.3 mg) was given for each target artery for both pre- and post-dilatation angiography and at follow-up. The sequence of contrast injections with the exact degree of angulation was recorded and used for every angiogram. Coronary arteriograms (pre-, post-procedure, and final follow-up) were analyzed together using the Coronary Measurement System (CMS), as previously reported. Patient follow-up included clinical evaluation, exercise treadmill testing, blood chemistry, pill count and drug level measurements, and dietary assessment and intervention. Patients were readmitted for follow-up coronary angiography at five to seven months. Patients in whom arteriography was performed for clinical reasons before the fifth month returned for repeat angiographic examination at five to seven months if no definite angiographic restenosis was present on at least one dilated site. During follow-up, patients with recurrence or exacerbation of anginal symptoms were treated with medical therapy or revascularization procedures (reangioplasty or Coronary Bypass Surgery) as clinically indicated. Patients with angiographic restenosis (lesion>50%. at follow-up) without clinical evidence of ischemia were not subjected to further interventional procedures.
Probucol is one of the first pharmacological interventions shown to prevent coronary restenosis after balloon angioplasty. However, its mechanism of action and its efficacy as a vascular remodeling agent has never been studied. […]

[3] = test system: LDL; assay: Ex vivo LDL peroxidation (diene conjugates after addition of copper ions) of MVP patients; parameters: species or system human; details: treatment for one month, preliminary results
Source text: Dietary intervention and smoking habits were similar in all groups. Probucol may simply be a more powerful antioxidant than the combination of vitamins. To this regard, preliminary results from the continuous spectrophotometric monitoring of diene conjugates in LDL after the addition of copper ions to the isolated lipoprotein ex vivo (Free Radic Res Commun 1989; 6:67-75) of MVP patients are noteworthy.

[4] = test system: coronary arteries after balloon angioplasty; assay: IVUS substudy of the MVP restenosis trial (lumen, wall, EEM areas after balloon angioplasty); assay type: in vivo, human
Description: The present invention concerns the IVUS substudy from the MVP restenosis trial. MVP was a double-blind placebo-controlled randomized clinical trial with four study groups. The protocol was approved by the Montreal Heart Institute institutional review board. The MVP study design, inclusion and exclusion criteria have been previously described (N Engl J Med 1997; 365-372). Briefly, patients referred for elective coronary angioplasty were evaluated at least 30 days prior to their scheduled procedure. Eligible patients were asked to provide written informed consent. Patients were eligible if they were scheduled to undergo standard balloon angioplasty on at least one native coronary artery and had at least one de novo target lesion with luminal narrowing of fifty percent or more by caliper measurements.
as §1, with “Patients in whom arteriography was performed for clinical reasons before the fifth month returned for repeat angiographic examination at five to seven months if no definite angiographic restenosis was present on at least one dilated site. During follow-up, patients with recurrence or exacerbation of anginal symptoms were treated with medical therapy or revascularization procedures (reangioplasty or Coronary Bypass Surgery) as clinically indicated. Patients with angiographic restenosis (lesion>50%. at follow-up) without clinical evidence of ischemia were not subjected to further interventional procedures.” left out
IVUS examinations were performed using 30 MHZ, 3.5 French mechanical (1800 rpm) ultrasound catheters (Boston Scientific, Natick, Mass.) and a dedicated imaging console (Hewlett Packard, Andover, Mass.) (Curr Opin Cardiol 1994; 9:627-633). […] IVUS imaging was monitored by an experienced cardiologist, but the angioplasty operator was blinded to ultrasound results to avoid altering standard balloon angioplasty practice. […] One angiographic view was recorded on videotape before beginning pullback of the IVUS catheter. […]

In the case of `Cc1cc(C(C)(C)C)c(O)c(C(C)(C)C)c1` [BHT, Butylated Hydroxytoluene], the “effect on sirolimus drug degradation on coated stent” value [1] is reported as “lessens drug degradation at both 8 weeks and 12 weeks”.
For `CC(C)(Sc1cc(C(C)(C)C)c(O)c(C(C)(C)C)c1)Sc1cc(C(C)(C)C)c(O)c(C(C)(C)C)c1` [Probucol Alone, 4,4′-([1-methylethylidene)bis(thio)]bis-[2,6-bis(1,1-dimethylethyl)phenol]], the “patients in whom restenosis still occurred” value ([2]; probucol alone) was “over twenty percent”, the “reduction of angiographic lumen loss compared to placebo” value ([2]; probucol given alone) was “sixty-eight percent” and the “reduction of restenosis rate per segment compared to placebo” value ([2]; probucol given alone) was “forty-seven percent”. For the same molecule, the “reduction of the need for repeat angioplasty at 6 month compared to placebo” value ([2]; probucol given alone) was “fifty-eight percent”, the “protection against LDL oxidation (lag phase for LDL peroxidation)” value [3] was “significantly greater protection against LDL oxidation than vitamins alone or the combination of probucol and vitamins” and the “reduction in lumen loss compared to non-probucol treated patients” value ([4]; IVUS, patients receiving probucol) was 0.79 mm^2. The “Lumen area, Follow-up Post PTCA (change)” value ([4]; IVUS, per segment analysis) was −0.15 ± 1.70 mm^2, the “reduction in lumen loss compared to the placebo group only” value ([4]; IVUS, probucol given alone) was 1.06 mm^2 and the “Lumen area, Follow-up Post PTCA (change)” value ([4]; efficacy analysis in compliant patients) was −0.15 ± 1.70 mm^2.
